Data as given in the kinase profiling compilation of Christmann-Franck et al. (2016).

These molecules were tested against ITK (human) (UniProt Q08881) (assay: KINOMEscan competition binding). Conditions: compound 10.0 µM.

Row | SMILES | kinase still bound, per cent of control [%]
1 | COc1cc(N2CCC(N3CCN(C)CC3)CC2)ccc1Nc1ncc(Cl)c(Nc2ccccc2S(=O)(=O)C(C)C)n1 | 0.1
2 | CCOc1cc(N2CCC(N3CCCCC3)CC2)ccc1Nc1nc(Nc2ccccc2S(=O)(=O)C(C)C)c2cn[nH]c2n1 | 40

Each molecule was assayed against PDGFRA (human) (UniProt P16234) (assay: KINOMEscan competition binding). Conditions: compound 10.0 µM.
PDGFRA (human), sequence (P16234 whole entry, looked up): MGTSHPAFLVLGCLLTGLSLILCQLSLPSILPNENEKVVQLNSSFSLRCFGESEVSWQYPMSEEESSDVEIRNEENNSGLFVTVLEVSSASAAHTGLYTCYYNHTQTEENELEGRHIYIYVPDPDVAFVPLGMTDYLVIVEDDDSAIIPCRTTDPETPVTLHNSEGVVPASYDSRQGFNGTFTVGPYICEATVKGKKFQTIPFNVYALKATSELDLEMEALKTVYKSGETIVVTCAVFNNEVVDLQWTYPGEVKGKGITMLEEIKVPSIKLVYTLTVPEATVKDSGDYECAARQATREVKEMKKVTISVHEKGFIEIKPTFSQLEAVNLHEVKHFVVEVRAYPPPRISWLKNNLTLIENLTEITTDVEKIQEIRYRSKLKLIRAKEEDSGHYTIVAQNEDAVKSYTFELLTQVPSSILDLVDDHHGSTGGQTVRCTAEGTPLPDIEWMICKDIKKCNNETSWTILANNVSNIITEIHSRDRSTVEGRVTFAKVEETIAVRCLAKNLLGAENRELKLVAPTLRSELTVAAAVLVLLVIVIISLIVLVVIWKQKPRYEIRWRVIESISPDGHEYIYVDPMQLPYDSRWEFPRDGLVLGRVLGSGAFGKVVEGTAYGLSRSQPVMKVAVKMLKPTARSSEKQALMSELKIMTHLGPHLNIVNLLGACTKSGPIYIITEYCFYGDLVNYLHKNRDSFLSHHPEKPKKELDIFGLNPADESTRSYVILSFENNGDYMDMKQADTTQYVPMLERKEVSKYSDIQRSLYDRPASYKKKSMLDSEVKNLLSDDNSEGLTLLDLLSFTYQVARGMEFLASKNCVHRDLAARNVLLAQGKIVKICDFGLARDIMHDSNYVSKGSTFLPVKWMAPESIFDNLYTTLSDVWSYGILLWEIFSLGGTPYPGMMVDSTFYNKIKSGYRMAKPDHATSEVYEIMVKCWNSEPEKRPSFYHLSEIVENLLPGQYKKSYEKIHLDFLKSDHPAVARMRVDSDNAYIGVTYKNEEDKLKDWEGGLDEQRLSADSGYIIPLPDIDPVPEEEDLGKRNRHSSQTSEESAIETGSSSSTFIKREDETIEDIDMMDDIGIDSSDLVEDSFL

Row | SMILES | kinase still bound, per cent of control [%]
3 | CCN1CCN(Cc2ccc(NC(=O)c3ccc(C)c(/C=C/c4cnc(Nc5cc(N6CCNCC6)nc(C)n5)cn4)c3)cc2C(F)(F)F)CC1 | 2.8
4 | COc1cc(N2CCC(N3CCN(C)CC3)CC2)ccc1Nc1ncc(Cl)c(Nc2ccccc2S(=O)(=O)C(C)C)n1 | 0.85
5 | CCOc1cc(N2CCC(N3CCCCC3)CC2)ccc1Nc1nc(Nc2ccccc2S(=O)(=O)C(C)C)c2cn[nH]c2n1 | 100
6 | CCN1CCN(Cc2ccc(NC(=O)c3ccc(C)c(Oc4ccnc5[nH]ccc45)c3)cc2C(F)(F)F)CC1 | 0.6

These molecules were tested against EPHB3 (human) (UniProt P54753) (assay: KINOMEscan competition binding). Conditions: compound 10.0 µM.
EPHB3 (human), sequence (P54753 whole entry, looked up): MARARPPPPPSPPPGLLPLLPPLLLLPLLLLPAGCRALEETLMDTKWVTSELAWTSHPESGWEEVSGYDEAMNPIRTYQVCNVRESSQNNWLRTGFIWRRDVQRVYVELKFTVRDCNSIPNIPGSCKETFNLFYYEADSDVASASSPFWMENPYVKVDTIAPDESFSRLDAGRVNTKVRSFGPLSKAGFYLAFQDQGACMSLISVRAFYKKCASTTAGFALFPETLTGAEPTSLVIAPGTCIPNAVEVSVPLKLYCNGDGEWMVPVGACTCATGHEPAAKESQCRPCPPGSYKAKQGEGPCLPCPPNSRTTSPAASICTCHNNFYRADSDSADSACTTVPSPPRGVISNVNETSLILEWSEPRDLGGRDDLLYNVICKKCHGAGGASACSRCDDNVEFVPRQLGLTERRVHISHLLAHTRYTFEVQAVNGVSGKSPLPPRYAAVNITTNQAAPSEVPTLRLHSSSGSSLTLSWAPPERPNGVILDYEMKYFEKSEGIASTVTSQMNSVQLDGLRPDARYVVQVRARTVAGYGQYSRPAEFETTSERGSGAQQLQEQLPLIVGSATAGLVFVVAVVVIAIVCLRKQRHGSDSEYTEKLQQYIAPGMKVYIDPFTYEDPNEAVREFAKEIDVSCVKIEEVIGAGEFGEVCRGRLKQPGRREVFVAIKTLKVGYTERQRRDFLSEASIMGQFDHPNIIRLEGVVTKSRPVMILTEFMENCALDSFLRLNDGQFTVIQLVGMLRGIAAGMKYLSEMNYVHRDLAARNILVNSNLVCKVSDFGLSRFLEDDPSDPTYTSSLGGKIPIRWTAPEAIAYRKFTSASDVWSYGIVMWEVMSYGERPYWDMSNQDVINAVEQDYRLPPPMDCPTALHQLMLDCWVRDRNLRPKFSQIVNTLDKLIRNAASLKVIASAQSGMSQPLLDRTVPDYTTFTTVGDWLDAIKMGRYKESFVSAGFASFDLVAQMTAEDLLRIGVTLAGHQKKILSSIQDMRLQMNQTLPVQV

Row | SMILES | kinase still bound, per cent of control [%]
7 | CCN1CCN(Cc2ccc(NC(=O)c3ccc(C)c(/C=C/c4cnc(Nc5cc(N6CCNCC6)nc(C)n5)cn4)c3)cc2C(F)(F)F)CC1 | 100
8 | COc1cc(N2CCC(N3CCN(C)CC3)CC2)ccc1Nc1ncc(Cl)c(Nc2ccccc2S(=O)(=O)C(C)C)n1 | 18
9 | CCOc1cc(N2CCC(N3CCCCC3)CC2)ccc1Nc1nc(Nc2ccccc2S(=O)(=O)C(C)C)c2cn[nH]c2n1 | 100

What follows are molecules tested on ABL1 (human), P00519 [E255K] (assay: KINOMEscan competition binding). Conditions: compound 10.0 µM.

Row | SMILES | kinase still bound, per cent of control [%]
10 | CCN1CCN(Cc2ccc(NC(=O)c3ccc(C)c(/C=C/c4cnc(Nc5cc(N6CCNCC6)nc(C)n5)cn4)c3)cc2C(F)(F)F)CC1 | 0.3
11 | COc1cc(N2CCC(N3CCN(C)CC3)CC2)ccc1Nc1ncc(Cl)c(Nc2ccccc2S(=O)(=O)C(C)C)n1 | 19
12 | CCOc1cc(N2CCC(N3CCCCC3)CC2)ccc1Nc1nc(Nc2ccccc2S(=O)(=O)C(C)C)c2cn[nH]c2n1 | 67
13 | CCN1CCN(Cc2ccc(NC(=O)c3ccc(C)c(Oc4ccnc5[nH]ccc45)c3)cc2C(F)(F)F)CC1 | 1.2

These molecules were tested against CDK5 (human) (UniProt Q00535) (assay: KINOMEscan competition binding). Conditions: compound 10.0 µM.

Row | SMILES | kinase still bound, per cent of control [%]
14 | CCN1CCN(Cc2ccc(NC(=O)c3ccc(C)c(/C=C/c4cnc(Nc5cc(N6CCNCC6)nc(C)n5)cn4)c3)cc2C(F)(F)F)CC1 | 96
15 | COc1cc(N2CCC(N3CCN(C)CC3)CC2)ccc1Nc1ncc(Cl)c(Nc2ccccc2S(=O)(=O)C(C)C)n1 | 5.2
16 | CCOc1cc(N2CCC(N3CCCCC3)CC2)ccc1Nc1nc(Nc2ccccc2S(=O)(=O)C(C)C)c2cn[nH]c2n1 | 96
17 | CCN1CCN(Cc2ccc(NC(=O)c3ccc(C)c(Oc4ccnc5[nH]ccc45)c3)cc2C(F)(F)F)CC1 | 19

Each molecule was assayed against DCLK3 (human) (UniProt Q9C098) (assay: KINOMEscan competition binding). Conditions: compound 10.0 µM.
DCLK3 (human), sequence (Q9C098 whole entry, looked up): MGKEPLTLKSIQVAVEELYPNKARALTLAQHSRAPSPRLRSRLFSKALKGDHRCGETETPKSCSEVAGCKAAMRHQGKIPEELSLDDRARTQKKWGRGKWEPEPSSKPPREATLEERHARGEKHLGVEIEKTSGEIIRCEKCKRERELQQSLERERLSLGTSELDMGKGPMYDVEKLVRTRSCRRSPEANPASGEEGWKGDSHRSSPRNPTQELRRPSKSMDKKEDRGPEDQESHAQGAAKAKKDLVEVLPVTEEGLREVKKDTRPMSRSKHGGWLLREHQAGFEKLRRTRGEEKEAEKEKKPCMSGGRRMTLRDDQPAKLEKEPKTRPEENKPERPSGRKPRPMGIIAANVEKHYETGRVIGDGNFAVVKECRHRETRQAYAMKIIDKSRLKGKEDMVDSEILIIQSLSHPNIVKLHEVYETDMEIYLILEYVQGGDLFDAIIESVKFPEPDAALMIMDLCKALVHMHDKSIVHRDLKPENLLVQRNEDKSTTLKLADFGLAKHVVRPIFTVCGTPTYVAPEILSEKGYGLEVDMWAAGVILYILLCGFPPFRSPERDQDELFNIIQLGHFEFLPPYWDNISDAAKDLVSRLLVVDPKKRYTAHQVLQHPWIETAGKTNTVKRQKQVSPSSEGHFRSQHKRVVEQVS

Row | SMILES | kinase still bound, per cent of control [%]
18 | CCN1CCN(Cc2ccc(NC(=O)c3ccc(C)c(/C=C/c4cnc(Nc5cc(N6CCNCC6)nc(C)n5)cn4)c3)cc2C(F)(F)F)CC1 | 87
19 | COc1cc(N2CCC(N3CCN(C)CC3)CC2)ccc1Nc1ncc(Cl)c(Nc2ccccc2S(=O)(=O)C(C)C)n1 | 0
20 | CCOc1cc(N2CCC(N3CCCCC3)CC2)ccc1Nc1nc(Nc2ccccc2S(=O)(=O)C(C)C)c2cn[nH]c2n1 | 100

The molecules below were run against AXL (human) (UniProt P30530) (assay: KINOMEscan competition binding). Conditions: compound 10.0 µM.

Row | SMILES | kinase still bound, per cent of control [%]
21 | CCN1CCN(Cc2ccc(NC(=O)c3ccc(C)c(/C=C/c4cnc(Nc5cc(N6CCNCC6)nc(C)n5)cn4)c3)cc2C(F)(F)F)CC1 | 26
22 | COc1cc(N2CCC(N3CCN(C)CC3)CC2)ccc1Nc1ncc(Cl)c(Nc2ccccc2S(=O)(=O)C(C)C)n1 | 0.1
23 | CCOc1cc(N2CCC(N3CCCCC3)CC2)ccc1Nc1nc(Nc2ccccc2S(=O)(=O)C(C)C)c2cn[nH]c2n1 | 100

These molecules were tested against MAPK13 (human) (UniProt O15264) (assay: KINOMEscan competition binding). Conditions: compound 10.0 µM.
MAPK13 (human), sequence (O15264 whole entry, looked up): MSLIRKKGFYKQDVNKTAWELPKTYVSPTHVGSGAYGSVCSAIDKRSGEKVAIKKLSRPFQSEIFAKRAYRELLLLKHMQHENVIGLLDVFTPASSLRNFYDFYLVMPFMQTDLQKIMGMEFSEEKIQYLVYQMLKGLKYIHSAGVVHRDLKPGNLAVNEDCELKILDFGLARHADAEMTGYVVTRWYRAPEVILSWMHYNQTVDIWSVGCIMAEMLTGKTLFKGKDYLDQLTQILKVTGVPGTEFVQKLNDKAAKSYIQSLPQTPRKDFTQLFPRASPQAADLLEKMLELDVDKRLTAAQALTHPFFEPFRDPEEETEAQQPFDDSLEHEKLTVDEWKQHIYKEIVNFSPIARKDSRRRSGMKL

Row | SMILES | kinase still bound, per cent of control [%]
24 | CCN1CCN(Cc2ccc(NC(=O)c3ccc(C)c(/C=C/c4cnc(Nc5cc(N6CCNCC6)nc(C)n5)cn4)c3)cc2C(F)(F)F)CC1 | 83
25 | COc1cc(N2CCC(N3CCN(C)CC3)CC2)ccc1Nc1ncc(Cl)c(Nc2ccccc2S(=O)(=O)C(C)C)n1 | 40
26 | CCOc1cc(N2CCC(N3CCCCC3)CC2)ccc1Nc1nc(Nc2ccccc2S(=O)(=O)C(C)C)c2cn[nH]c2n1 | 100
27 | CCN1CCN(Cc2ccc(NC(=O)c3ccc(C)c(Oc4ccnc5[nH]ccc45)c3)cc2C(F)(F)F)CC1 | 0.55

The molecules below were run against BMX (human) (UniProt P51813) (assay: KINOMEscan competition binding). Conditions: compound 10.0 µM.
BMX (human), sequence (P51813 whole entry, looked up): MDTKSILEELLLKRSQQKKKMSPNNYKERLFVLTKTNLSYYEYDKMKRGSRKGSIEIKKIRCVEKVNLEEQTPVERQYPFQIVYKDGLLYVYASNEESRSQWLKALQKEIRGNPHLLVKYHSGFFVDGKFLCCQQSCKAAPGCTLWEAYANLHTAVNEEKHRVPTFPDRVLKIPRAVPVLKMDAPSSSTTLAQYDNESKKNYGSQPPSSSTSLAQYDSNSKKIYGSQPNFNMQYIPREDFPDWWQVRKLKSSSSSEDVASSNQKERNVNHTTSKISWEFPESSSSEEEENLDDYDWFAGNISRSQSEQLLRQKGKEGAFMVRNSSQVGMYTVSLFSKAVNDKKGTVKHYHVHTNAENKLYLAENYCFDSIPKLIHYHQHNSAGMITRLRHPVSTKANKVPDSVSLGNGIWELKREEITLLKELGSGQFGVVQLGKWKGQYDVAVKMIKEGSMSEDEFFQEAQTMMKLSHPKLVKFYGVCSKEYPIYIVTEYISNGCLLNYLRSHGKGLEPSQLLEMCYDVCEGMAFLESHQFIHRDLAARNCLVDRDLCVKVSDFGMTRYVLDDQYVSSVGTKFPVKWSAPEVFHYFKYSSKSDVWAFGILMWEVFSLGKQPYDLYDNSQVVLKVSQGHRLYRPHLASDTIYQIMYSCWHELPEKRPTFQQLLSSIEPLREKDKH

Row | SMILES | kinase still bound, per cent of control [%]
28 | CCN1CCN(Cc2ccc(NC(=O)c3ccc(C)c(/C=C/c4cnc(Nc5cc(N6CCNCC6)nc(C)n5)cn4)c3)cc2C(F)(F)F)CC1 | 12
29 | CCOc1cc(N2CCC(N3CCCCC3)CC2)ccc1Nc1nc(Nc2ccccc2S(=O)(=O)C(C)C)c2cn[nH]c2n1 | 100
30 | CCN1CCN(Cc2ccc(NC(=O)c3ccc(C)c(Oc4ccnc5[nH]ccc45)c3)cc2C(F)(F)F)CC1 | 2.4

Each molecule was assayed against TGFBR2 (human) (UniProt P37173) (assay: KINOMEscan competition binding). Conditions: compound 10.0 µM.

Row | SMILES | kinase still bound, per cent of control [%]
31 | CCN1CCN(Cc2ccc(NC(=O)c3ccc(C)c(/C=C/c4cnc(Nc5cc(N6CCNCC6)nc(C)n5)cn4)c3)cc2C(F)(F)F)CC1 | 54
32 | COc1cc(N2CCC(N3CCN(C)CC3)CC2)ccc1Nc1ncc(Cl)c(Nc2ccccc2S(=O)(=O)C(C)C)n1 | 2.7
33 | CCOc1cc(N2CCC(N3CCCCC3)CC2)ccc1Nc1nc(Nc2ccccc2S(=O)(=O)C(C)C)c2cn[nH]c2n1 | 100

Each molecule was assayed against TIE1 (human) (UniProt P35590) (assay: KINOMEscan competition binding). Conditions: compound 10.0 µM.
TIE1 (human), sequence (P35590 whole entry, looked up): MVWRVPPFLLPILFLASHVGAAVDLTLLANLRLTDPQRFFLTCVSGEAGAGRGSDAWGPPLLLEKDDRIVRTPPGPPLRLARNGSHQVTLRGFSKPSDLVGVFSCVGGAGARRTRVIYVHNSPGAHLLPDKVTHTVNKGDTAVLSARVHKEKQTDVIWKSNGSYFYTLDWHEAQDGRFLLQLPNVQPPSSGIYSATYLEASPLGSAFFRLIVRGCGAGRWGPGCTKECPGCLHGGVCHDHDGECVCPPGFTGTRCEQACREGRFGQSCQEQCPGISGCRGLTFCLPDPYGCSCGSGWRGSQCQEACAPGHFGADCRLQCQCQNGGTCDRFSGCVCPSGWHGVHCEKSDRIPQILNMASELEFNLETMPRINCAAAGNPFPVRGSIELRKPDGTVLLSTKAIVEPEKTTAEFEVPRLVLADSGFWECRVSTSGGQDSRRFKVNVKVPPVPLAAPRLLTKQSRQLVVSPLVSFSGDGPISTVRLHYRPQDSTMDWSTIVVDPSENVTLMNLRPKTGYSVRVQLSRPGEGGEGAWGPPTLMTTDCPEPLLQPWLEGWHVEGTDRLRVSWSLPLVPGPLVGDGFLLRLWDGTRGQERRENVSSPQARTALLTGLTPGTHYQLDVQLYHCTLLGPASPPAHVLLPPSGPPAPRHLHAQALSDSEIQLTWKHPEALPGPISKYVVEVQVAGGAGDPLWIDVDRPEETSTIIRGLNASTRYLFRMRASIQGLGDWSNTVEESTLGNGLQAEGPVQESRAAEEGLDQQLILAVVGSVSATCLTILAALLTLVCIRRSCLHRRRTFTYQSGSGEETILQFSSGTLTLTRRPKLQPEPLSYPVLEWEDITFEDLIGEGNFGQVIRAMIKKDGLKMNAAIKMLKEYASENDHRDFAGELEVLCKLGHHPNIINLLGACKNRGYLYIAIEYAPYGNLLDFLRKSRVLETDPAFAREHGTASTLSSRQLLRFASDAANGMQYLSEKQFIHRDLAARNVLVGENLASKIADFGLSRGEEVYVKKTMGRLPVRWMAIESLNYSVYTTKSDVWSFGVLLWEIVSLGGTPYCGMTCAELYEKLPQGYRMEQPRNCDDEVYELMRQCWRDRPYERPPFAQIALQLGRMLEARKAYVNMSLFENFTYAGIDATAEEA

Row | SMILES | kinase still bound, per cent of control [%]
34 | CCN1CCN(Cc2ccc(NC(=O)c3ccc(C)c(/C=C/c4cnc(Nc5cc(N6CCNCC6)nc(C)n5)cn4)c3)cc2C(F)(F)F)CC1 | 2.8
35 | CCOc1cc(N2CCC(N3CCCCC3)CC2)ccc1Nc1nc(Nc2ccccc2S(=O)(=O)C(C)C)c2cn[nH]c2n1 | 76
36 | CCN1CCN(Cc2ccc(NC(=O)c3ccc(C)c(Oc4ccnc5[nH]ccc45)c3)cc2C(F)(F)F)CC1 | 0.95

These molecules were tested against NEK1 (human) (UniProt Q96PY6) (assay: KINOMEscan competition binding). Conditions: compound 10.0 µM.

Row | SMILES | kinase still bound, per cent of control [%]
37 | CCN1CCN(Cc2ccc(NC(=O)c3ccc(C)c(/C=C/c4cnc(Nc5cc(N6CCNCC6)nc(C)n5)cn4)c3)cc2C(F)(F)F)CC1 | 91
